Laboratory results published in ChEMBL document CHEMBL1158193, “Ability of different flavonoids to inhibit the procoagulant activity of adherent human monocytes” (J Nat Prod, 1996).

System: Monocyte
Test: Inhibition of procoagulant activity in monocyte from human blood assessed as counteraction of endotoxin-induced tissue factor expression after 18 hrs
Format: functional, cell-based

Row | SMILES | IC50 [nM]
1 | O=c1cc(-c2ccc(Oc3c(O)cc4oc(-c5ccc(O)cc5)cc(=O)c4c3O)cc2)oc2cc(O)cc(O)c12 [HINOKIFLAVONE] | 18

System: Monocyte
Test: Inhibition of procoagulant activity in monocyte from human blood assessed as counteraction of IL1-induced tissue factor expression at 10 uM after 18 hrs measured as microunits of tissue factor/10^5 cells
Format: functional

Row | SMILES | Activity
2 | COc1ccc(-c2cc(=O)c3c(OC)c(OC)c(OC)cc3o2)cc1O | 0
3 | CC(=O)OC[C@H]1O[C@@H](Oc2c(-c3ccc(O)c(O)c3)oc3cc(O)cc(O)c3c2=O)[C@H](O)[C@@H](O)[C@@H]1O | 12.4
4 | C[C@@H]1O[C@@H](OC[C@H]2O[C@@H](Oc3c(-c4ccccc4O)oc4cc(O)cc(O)c4c3=O)[C@H](O)[C@@H](O)[C@@H]2O)[C@H](O)[C@H](O)[C@H]1O | 28.4
5 | CCCC(=O)Oc1c(OC)cc(O)c2c(=O)c(O)c(-c3ccccc3)oc12 | 0
6 | COc1cc(-c2cc(=O)c3c(O)cc(O)cc3o2)cc(OC)c1OC | 0
7 | COc1ccc(-c2cc(=O)c3ccccc3o2)cc1 [4'-METHOXYFLAVONE] | 0
8 | O=C1c2c(O)cc(O)cc2O[C@H](c2ccc(O)c(O)c2)[C@H]1O [(+)-TAXIFOLIN] | 41
9 | COc1ccc(-c2cc(=O)c3c(O)cc(O)cc3o2)cc1 [ACACETIN] | 26
10 | O=c1c(O[C@@H]2O[C@H](CO)[C@@H](O)[C@H](O)[C@H]2O)c(-c2ccc(O)cc2)oc2cc(O)cc(O)c12 [ASTRAGALIN] | 0
11 | O=c1c(O[C@@H]2O[C@@H](CO)[C@H](O)[C@H]2O)c(-c2ccc(O)c(O)c2)oc2cc(O)cc(O)c12 [AVICULARIN] | 0
12 | O=c1cc(-c2ccccc2)oc2cc(O)c(O)c(O)c12 [BAICALEIN] | 55.2
13 | O=c1c(-c2ccc(O)cc2)coc2cc(O)ccc12 [DAIDZEIN] | 0
14 | O=c1c(-c2ccc(O)cc2)coc2cc(O[C@@H]3O[C@H](CO)[C@@H](O)[C@H](O)[C@H]3O)ccc12 [DAIDZIN] | 0
15 | O=c1c(O)c(-c2ccccc2O)oc2cc(O)cc(O)c12 [DATISCETIN] | 28.4
16 | O=C1c2ccc(O)cc2O[C@@H](c2cc(O)c(O)c(O)c2)[C@@H]1O [DIHYDROROBINETIN] | 0
17 | COc1ccc(-c2cc(=O)c3c(O)c(OC)c(OC)cc3o2)cc1O [EUPATORIN] | 0
18 | O=c1cc(-c2ccccc2)oc2ccccc12 [FLAVONE] | 6.8
19 | O=C1c2ccc(O)cc2O[C@H](c2ccc(O)c(O)c2)[C@H]1O [FUSTIN] | 0
20 | O=c1c(O)c(-c2ccccc2)oc2cc(O)cc(O)c12 [GALANGIN] | 0
21 | COc1cc(-c2cc(=O)c3c(O)c(OC)c(OC)cc3o2)cc(OC)c1OC [GRADENIN A] | 0

Row | SMILES | Activity
22 | O=c1cc(-c2ccc(Oc3c(O)cc4oc(-c5ccc(O)cc5)cc(=O)c4c3O)cc2)oc2cc(O)cc(O)c12 [HINOKIFLAVONE] | 0
23 | COc1cc([C@@H]2CC(=O)c3c(O)cc(O)cc3O2)ccc1O [HOMOERIODICTYOL] | 0
24 | COc1c(-c2ccccc2)oc2c(ccc3occc32)c1=O [KARANJIN] | 0
25 | O=c1cc(-c2ccc(O)c(O)c2)oc2cc(O)cc(O)c12 [LUTEOLIN] | 10.6
26 | O=c1c(O)c(-c2ccc(O)cc2O)oc2cc(O)cc(O)c12 [MORIN] | 0
27 | O=c1c(O)c(-c2cc(O)c(O)c(O)c2)oc2cc(O)cc(O)c12 [MYRICETIN] | 1.2
28 | C[C@H]1O[C@@H](Oc2c(-c3cc(O)c(O)c(O)c3)oc3cc(O)cc(O)c3c2=O)[C@@H](O)[C@@H](O)[C@@H]1O [MYRICITRIN] | 37.7
29 | O=C1C[C@@H](c2ccc(O)cc2)Oc2cc(O)cc(O)c21 [NARINGENIN] | 0
30 | C[C@@H]1O[C@@H](OC[C@H]2O[C@@H](Oc3cc(O)c4c(c3)O[C@H](c3ccc(O)cc3)CC4=O)[C@H](O)[C@@H](O)[C@@H]2O)[C@H](O)[C@H](O)[C@H]1O [NARIRUTIN] | 0
31 | COc1ccc([C@@H]2CC(=O)c3c(O)cc(O[C@@H]4O[C@H](CO)[C@@H](O)[C@H](O)[C@H]4O[C@@H]4O[C@@H](C)[C@H](O)[C@@H](O)[C@H]4O)cc3O2)cc1O [NEOHESPERIDIN] | 0
32 | O=c1c(-c2ccc3c(c2)OCO3)coc2cc(O)ccc12 [PSEUDOBAPTOGENIN] | 0
33 | O=c1c(O)c(-c2ccc(O)c(O)c2)oc2cc(O)c(O)c(O)c12 [QUERCETAGETIN] | 0
34 | O=c1c(O)c(-c2ccc(O)c(O)c2)oc2cc(O)cc(O)c12 [QUERCETIN] | 0
35 | COc1cc(O)c2c(=O)c(O)c(-c3ccc(O)c(O)c3)oc2c1 [RHAMNETIN] | 0
36 | O=c1c(O)c(-c2cc(O)c(O)c(O)c2)oc2cc(O)ccc12 [ROBINETIN] | 38.5
37 | C[C@@H]1O[C@@H](OC[C@H]2O[C@@H](Oc3c(-c4ccc(O)c(O)c4)oc4cc(O)cc(O)c4c3=O)[C@H](O)[C@@H](O)[C@@H]2O)[C@H](O)[C@H](O)[C@H]1O [RUTIN] | 9.1
38 | COc1ccc(-c2cc(=O)c3c(O)cc(O)c(-c4cc(-c5cc(=O)c6c(O)cc(OC)cc6o5)ccc4OC)c3o2)cc1 [SCIADOPITISIN] | 0
39 | COc1cc(C2Oc3cc([C@H]4Oc5cc(O)cc(O)c5C(=O)[C@@H]4O)ccc3OC2CO)ccc1O (stereo partly specified) [SILIBININ] | 0
40 | COc1ccc(-c2cc(=O)c3c(OC)c(OC)c(OC)c(OC)c3o2)cc1 [TANGERETIN] | 0
41 | COc1cc(O)c2c(=O)cc(-c3ccccc3)oc2c1 [TECHTOCHRYSIN] | 39

System: Monocyte
Test: Inhibition of procoagulant activity in monocyte from human blood assessed as counteraction of IL1-induced tissue factor expression after 18 hrs
Format: functional, cell-based

Row | SMILES | IC50 [nM]
42 | COc1cc(-c2oc3cc(O)cc(O)c3c(=O)c2O[C@@H]2O[C@H](CO)[C@@H](O)[C@H](O)[C@H]2O)ccc1O | 3800
43 | O=c1cc(-c2ccc(O)c(-c3c(O)cc(O)c4c(=O)cc(-c5ccc(O)cc5)oc34)c2)oc2cc(O)cc(O)c12 [AMENTOFLAVONE] | 3000
44 | O=c1cc(-c2ccc(O)cc2)oc2cc(O)cc(O)c12 [APIGENIN] | 1200
45 | COc1cc2oc(-c3ccc(O)cc3)cc(=O)c2cc1CC=C(C)C [BAVACHININ] | 3200
46 | O=c1cc(-c2ccccc2)oc2cc(O)cc(O)c12 [CHRYSIN] | 2400
47 | COc1cc(-c2cc(=O)c3c(O)cc(O)cc3o2)ccc1O [CHRYSOERIOL] | 2600
48 | COc1ccc(-c2cc(=O)c3c(O)cc(O)cc3o2)cc1O [DIOSMETIN] | 3000
49 | O=c1c(O)c(-c2ccc(O)c(O)c2)oc2cc(O)ccc12 [FISETIN] | 3700
50 | COc1cc(-c2oc3cc(O)ccc3c(=O)c2O)ccc1O [GERALDOL] | 2300
51 | COc1ccc([C@@H]2CC(=O)c3c(O)cc(O)cc3O2)cc1O [HESPERETIN] | 2100
52 | O=c1cc(-c2ccc(Oc3c(O)cc4oc(-c5ccc(O)cc5)cc(=O)c4c3O)cc2)oc2cc(O)cc(O)c12 [HINOKIFLAVONE] | 48
53 | COc1cc(-c2oc3cc(O)cc(O)c3c(=O)c2O)ccc1O [ISORHAMNETIN] | 3800
54 | COc1ccc(-c2oc3cc(O)cc(O)c3c(=O)c2O)cc1 [KAEMPFERIDE] | 5700
55 | O=c1c(O)c(-c2ccc(O)cc2)oc2cc(O)cc(O)c12 [KAEMPFEROL] | 2700
56 | O=c1cc(-c2ccc(O)c(O[C@@H]3O[C@H](CO)[C@@H](O)[C@H](O)[C@H]3O)c2)oc2cc(O[C@@H]3O[C@H](CO)[C@@H](O)[C@H](O)[C@H]3O)cc(O)c12 [LUTEOLIN-3',7-DIGLUCOSIDE] | 1550
57 | O=c1cc(-c2ccc(O)c(O)c2)oc2cc(O)cc(O)c12 [LUTEOLIN] | 1500
58 | COc1ccc(-c2cc(=O)c3c(OC)c(OC)c(OC)cc3o2)cc1OC [SINENSETIN] | 10000
59 | COc1cc(-c2oc3cc(O)cc(O)c3c(=O)c2O)cc(OC)c1O [SYRINGETIN] | 2100
60 | COc1ccc(-c2oc3cc(O)cc(O)c3c(=O)c2O)cc1O [TAMARIXETIN] | 4600
61 | O=C(/C=C/c1ccc(O)cc1)OC[C@H]1O[C@@H](Oc2c(-c3ccc(O)cc3)oc3cc(O)cc(O)c3c2=O)[C@H](O)[C@@H](O)[C@@H]1O [TILIROSIDE] | 5200
